Experimental data as given in patent publication US5602106A, “16-membered macrolide derivatives” (priority 1993, dated 1997).
≈ marks a conversion by molar mass, not a printed value. Read-outs that look alike come from different tables or passages of the source.

What was measured:
Assay type in all cases: cell-based
test strains = test: Antimicrobial activity in vitro, test strains overall
Experimental: (§1) The effect of the first aspect of the present invention resides in the creation of a novel and useful 16-membered macrolide derivative. Antimicrobial activities of the compounds of the present invention were determined by measuring minimum inhibitory concentration (MIC). Minimum inhibitory concentration was determined by the agar plate dilution method in the following manner.
(§2) Test strains were subjected to seed culture using Sensitivity test broth (STB, Nissui Pharmaceutical) except that the strains belonging to the genus Streptococcus, Branhamella and Haemophilus were cultured on blood agar plate. A 5 μl portion of cell suspension of the test strains having about 10^6 CFU/ml was inoculated into Sensitivity disk agar (SDA, Nissui Pharmaceutical) supplemented with 5% horse blood and incubated at 37° C. for 20 hours. Then, MIC was measured. […] Antimicrobial activities in vitro of the compounds (1) and (2) are shown in Table 1, and those of the compounds (3) and (4) in Table 3.

B. catarrhalis W-0500 = test: MIC, agar plate dilution method; conditions: Moraxella catarrhalis, W0500; 37° C., 20 hours, SDA with 5% horse blood; read-out: Antimicrobial activity (MIC)
Experimental: as §1, §2

B. catarrhalis W-0506 = test: MIC, agar plate dilution method; conditions: Moraxella catarrhalis, W0506; 37° C., 20 hours, SDA with 5% horse blood; read-out: Antimicrobial activity (MIC)
Experimental: as §1, §2

E. coli NIHJ JC-2 = test: MIC, agar plate dilution method; conditions: Escherichia coli, NIHJJC2, 20 h, 37° C., SDA with 5% horse blood, read-out: Antimicrobial activity (MIC)
Experimental: as §1, §2

E. faecalis W-73 = test: MIC, agar plate dilution method; conditions: Enterococcus faecalis, W73, 20 h, read-out: Antimicrobial activity (MIC)
Experimental: as §1, §2

H. influenzae Type b = test: MIC, agar plate dilution method; conditions: Haemophilus influenzae
Experimental: as §1, §2

K. pneumoniae PCI602 = test: MIC, agar plate dilution method; conditions: Klebsiella pneumoniae, 37° C., SDA with 5% horse blood, read-out: Antimicrobial activity (MIC)
Experimental: as §1, §2

M. luteus ATCC9341 = test: MIC, agar plate dilution method; conditions: Micrococcus luteus
Experimental: as §1, §2

S. aureus 209P JC-1 = test: MIC, agar plate dilution method; conditions: Staphylococcus aureus, 209P, 20 h
Experimental: as §1, §2

S. aureus M126 = test: MIC, agar plate dilution method; conditions: Staphylococcus aureus, 37° C., 20 hours, SDA with 5% horse blood, read-out: Antimicrobial activity (MIC)
Experimental: as §1, §2

S. aureus M133 = test: MIC, agar plate dilution method; conditions: Staphylococcus aureus, M133, 20 h
Experimental: as §1, §2

S. aureus MS15009/pMS98 = test: MIC, agar plate dilution method; conditions: Staphylococcus aureus, MS15009/PMS98, 20 h, read-out: Antimicrobial activity (MIC), 37° C., 20 hours, SDA with 5% horse blood
Experimental: as §1, §2

S. aureus MS15009/pMS99 = test: MIC, agar plate dilution method; conditions: Staphylococcus aureus, MS15009/PMS99, 20 h, read-out: Antimicrobial activity (MIC)
Experimental: as §1, §2

S. aureus MS15026 = test: MIC, agar plate dilution method; conditions: Staphylococcus aureus, 37° C., 20 hours, SDA with 5% horse blood, read-out: Antimicrobial activity (MIC)
Experimental: as §1, §2

S. aureus MS15027 = test: MIC, agar plate dilution method; conditions: Staphylococcus aureus
Experimental: as §1, §2

S. epidermidis ATCC14990 = test: MIC, agar plate dilution method; conditions: Staphylococcus epidermidis
Experimental: as §1, §2

S. pneumoniae IP692 = test: MIC, agar plate dilution method; conditions: Streptococcus pneumoniae, IP692, 20 h
Experimental: as §1, §2

S. pneumoniae Type 1 = test: MIC, agar plate dilution method; conditions: Streptococcus pneumoniae
Experimental: as §1, §2

S. pyogenes Cook = test: MIC, agar plate dilution method; conditions: Streptococcus pyogenes; 37° C., 20 hours, SDA with 5% horse blood; read-out: Antimicrobial activity (MIC)
Experimental: as §1, §2

[1] = read-out: Antimicrobial activity (MIC), 37° C., 20 hours, SDA with 5% horse blood
[2] = 37° C., 20 hours, SDA with 5% horse blood, read-out: Antimicrobial activity (MIC)

SMILES: CCOC(C)O[C@H]1/C=C/C=C/C[C@@H](C)OC(=O)C[C@@H](OC(=O)CC)[C@H](OC)[C@@H](O[C@@H]2O[C@H](C)[C@@H](O[C@H]3C[C@@](C)(OC)[C@@H](OC(=O)CC)[C@H](C)O3)[C@H](N(C)C)[C@H]2O)[C@@H](CC=O)C[C@H]1C (single isomer, unassigned) [(16L)]
- antimicrobial activities compared with compound (1) (test strains; vs compound (1)): inferior to those of the compound (1)

SMILES: CCCC(=O)O[C@H]1[C@H](C)O[C@@H](O[C@H]2[C@H](N(C)C)[C@@H](O)[C@H](O[C@H]3[C@@H](CC=O)C[C@@H](C)[C@@H](OC(C)=O)/C=C/C=C/C[C@@H](C)OC(=O)C[C@@H](O)[C@@H]3OC)O[C@@H]2C)C[C@@]1(C)OC [(39), 9-O-acetyl-3"-O-methylleucomycin A5]
- antimicrobial activities compared with starting materials (1), (2) and (33) (test strains; 9-O-acylated vs free 9-hydroxyl): strong antimicrobial activities by themselves though slightly lower than those of their starting materials

SMILES: CCC(=O)O[C@@H]1CC(=O)O[C@H](C)C/C=C/C=C/[C@H](O)[C@H](C)C[C@H](CC=O)[C@H](O[C@@H]2O[C@H](C)[C@@H](O[C@H]3C[C@@](C)(O)[C@@H](O)[C@H](C)O3)[C@H](N(C)C)[C@H]2O)[C@H]1OC [MDM-M1, midecamycin M1, reference compound]
- MIC (B. catarrhalis W-0500): 25 µg/mL (≈ 33 µM)
- MIC (B. catarrhalis W-0506): 25 µg/mL (≈ 33 µM)
- MIC (E. coli NIHJ JC-2): > 100 µg/mL
- MIC (E. faecalis W-73): 12.5 µg/mL (≈ 16.5 µM)
- MIC (H. influenzae Type b; 20 h, read-out: Antimicrobial activity (MIC), 37° C., 20 hours, SDA with 5% horse blood): 100 µg/mL (≈ 132 µM)
- MIC (K. pneumoniae PCI602; PCI602, 20 h): > 100 µg/mL
- MIC (M. luteus ATCC9341; ATCC9341, 20 h, read-out: Antimicrobial activity (MIC), 37° C., 20 hours, SDA with 5% horse blood): 0.39 µg/mL (≈ 0.515 µM)
- MIC (S. aureus 209P JC-1; [1]): 6.25 µg/mL (≈ 8.25 µM)
- MIC (S. aureus M126): > 100 µg/mL
- MIC (S. aureus M133; [1]): 12.5 µg/mL (≈ 16.5 µM)
- MIC (S. aureus MS15009/pMS98): 6.25 µg/mL (≈ 8.25 µM)
- MIC (S. aureus MS15009/pMS99): > 100 µg/mL
- MIC (S. aureus MS15026): > 100 µg/mL
- MIC (S. aureus MS15027; MS15027, 20 h, read-out: Antimicrobial activity (MIC), 37° C., 20 hours, SDA with 5% horse blood): 6.25 µg/mL (≈ 8.25 µM)
- MIC (S. epidermidis ATCC14990; ATCC14990, 20 h, read-out: Antimicrobial activity (MIC), 37° C., 20 hours, SDA with 5% horse blood): 12.5 µg/mL (≈ 16.5 µM)
- MIC (S. pneumoniae IP692; [1]): 0.78 µg/mL (≈ 1.03 µM)
- MIC (S. pneumoniae Type 1; TYPE1, 20 h, read-out: Antimicrobial activity (MIC), 37° C., 20 hours, SDA with 5% horse blood): 0.78 µg/mL (≈ 1.03 µM)
- MIC (S. pyogenes Cook): 1.56 µg/mL (≈ 2.06 µM)

SMILES: CCC(=O)O[C@@H]1CC(=O)O[C@H](C)C/C=C/C=C/[C@H](O)[C@H](C)C[C@H](CC=O)[C@H](O[C@@H]2O[C@H](C)[C@@H](O[C@H]3C[C@@](C)(O)[C@@H](OC(=O)CC)[C@H](C)O3)[C@H](N(C)C)[C@H]2O)[C@H]1OC [MDM, midecamycin A1, reference compound]
- MIC (B. catarrhalis W-0500): 3.13 µg/mL (≈ 3.85 µM)
- MIC (B. catarrhalis W-0506): 3.13 µg/mL (≈ 3.85 µM)
- MIC (E. faecalis W-73; 37° C., 20 hours, SDA with 5% horse blood): 3.13 µg/mL (≈ 3.85 µM)
- MIC (H. influenzae Type b; [2]): 25 µg/mL (≈ 30.7 µM)
- MIC (K. pneumoniae PCI602; PCI602, 20 hours): > 100 µg/mL
- MIC (M. luteus ATCC9341; ATCC9341, 37° C., 20 hours, SDA with 5% horse blood, read-out: Antimicrobial activity (MIC)): 0.05 µg/mL (≈ 0.0614 µM)
- MIC (S. aureus 209P JC-1; [2]): 0.39 µg/mL (≈ 0.479 µM)
- MIC (S. aureus M126): > 100 µg/mL
- MIC (S. aureus M133; [2]): 0.78 µg/mL (≈ 0.958 µM)
- MIC (S. aureus MS15009/pMS98): 0.39 µg/mL (≈ 0.479 µM)
- MIC (S. aureus MS15009/pMS99): > 100 µg/mL
- MIC (S. aureus MS15026): > 100 µg/mL
- MIC (S. aureus MS15027; MS15027, 37° C., 20 hours, SDA with 5% horse blood, read-out: Antimicrobial activity (MIC)): 0.78 µg/mL (≈ 0.958 µM)
- MIC (S. epidermidis ATCC14990; ATCC14990, 37° C., 20 hours, SDA with 5% horse blood, read-out: Antimicrobial activity (MIC)): 0.78 µg/mL (≈ 0.958 µM)
- MIC (S. pneumoniae IP692; [2]): 0.39 µg/mL (≈ 0.479 µM)
- MIC (S. pneumoniae Type 1; TYPE1, 37° C., 20 hours, SDA with 5% horse blood, read-out: Antimicrobial activity (MIC)): 0.39 µg/mL (≈ 0.479 µM)
